According to patent publication US20230173071A1, “TREATMENT OF MYOPIA AND OTHER OCULAR CONDITIONS USING SINGLET OXYGEN GENERATED FROM DYES ACTIVATED BY NEAR-INFRARED LIGHT” (California Institute of Technology, priority 2018, published 2023):
Entries after “also recorded” stand apart in the source; their conditions may differ. Each block holds one compound with its values, some of them ahead of it.

Experiments:
[1] = Dye stability observations
Procedure: Unfortunately, IR-1061-pyridinium was unatable in the presence of water. In an attempt to overcome the susceptibility of IR-1061-pyridinium to hydration, the pyridine charge-transfer partner was exchanged for acridine, which was expected to shield the dye from water addition due to its additional bulk.
To confirm that the process was singlet oxygen-mediated, irradiation of a freeze-pump-thawed sample—devoid of oxygen—was carried out. […] To evaluate the scope of the reaction, the dye was irradiated in an array of deuterated solvents.

[2] = Irradiation of IR-1061 dyes with DPBF, 980 nm or 1064 nm laser; format: physicochemical; settings: for DPBF signal relative to a dark control: 30 minutes of irradiation, 1 W cm^-2 980 nm laser
Procedure: Initial work was done using a set of IR-1061 derivatives: cited herein as IR-1061-pyridine and IR-1061-pyridinium.
Like IR-1061-pyridinium, IR-1061-acridinium was irradiated in CDCl3 in the presence of DPBF using a 1 W cm^−2 980 nm laser (FIG. 15(A)). As a comparison, a similar irradiation was carried out using a 1.8 W cm^−2 1064 nm laser (FIG. 16). The collective effect of irradiation wavelength and conditions are seen in FIGS. 15(A-C), and FIGS. 16-18.

[3] = Singlet oxygen generation by DPBF decay (UV-Vis), 810 nm LED; format: physicochemical
Excerpt: To evaluate the efficiency of singlet oxygen generation by ICG and an analog (IR-820) in vitro, the singlet oxygen generation was monitored. 1,3-diphenylisobenzofuran (DPBF), a compound that decays in the presence of singlet oxygen, and singlet oxygen sensor green (SOSG), a dye that increases fluorescence in the presence of singlet oxygen, were used as markers to indicate singlet oxygen generation by ICG and IR-820. […] For SOSG analysis, the fluorescence turn-on in H2O and D2O was compared to that observed when riboflavin—an FDA approved dye used in conjunction with UV light to treat keratoconus (corneal expansion)—was usedIn all cases, an increase in fluorescence emission at 525 nm was observed (using a 488nm excitation).

porcine sclera = settings: treated with UV light and riboflavin; previous work; cited from earlier work
[4] = Singlet oxygen sensor green (SOSG) fluorescence measurements; format: physicochemical; settings: dye 0.1 mg/mL; 3 mW at 365 nm; 488 nm excitation
Procedure: Singlet oxygen sensor green (SOSG) is a common reagent for measuring singlet oxygen generation in aqueous systems. The marker becomes more fluorescent as singlet oxygen is generated. All time measurements were done in triplicate (100 μL aliquots from an irradiated sample). A Molecular Devices Flexstation was used to read out the fluorescence measurements with the excitation/emission at 488/525 nm.
SOSG fluorescence turn on was initially measured using riboflavin as a point of comparison for the efficacy of ICG irradiations. Measurements used a dye concentration of 0.1 mg/mL and the irradiation the parameters (3 mW at 365 nm) used in the FDA approved procedure for keratoconus (corneal expansion). The mixture was stirred during irradiation.
Stocks of the ICG formulations (both H2O and D2O) were made to be 1 mg/mL ICG and 0.01% benzalkonium chloride (BAC). These were diluted to a dye concentration of 0.1 mg/mL for the SOSG tests with no adjustments for the BAC. The sample was irradiated with 810 nm light at 200 mW and stirred throughout the irradiation.

[5] = Irradiation of IR-1061 dyes with DPBF, 980 nm or 1064 nm laser; format: physicochemical
[6] = Dye solubility observations; format: physicochemical; settings: counterion exchanged from BF4- to BarF-
Procedure: ICG is a NIR-absorbing heptamethine dye that has the potential of generating singlet oxygen upon irradiation and has a λmax ranging from 780-810 nm depending on the context. […] BAC along with other cationic surfactants (alkyl ammonium salts, polyoxyethylene alkyl amines, amide linked alkyl amines, alkyl imidazolines, etc.) aid in the solubility of the dye in aqueous media. […] The standard formulation used in these studies consisted of 0.05 to 5.0 mg/mL ICG and 0.01% to 0.001% BAC in solution. D2O was selected as the solvent to increase the lifetime of singlet oxygen and therefore the crosslinking capability of the species. […] Fluorinated solvents (perfluorohexane, perfluorotripentylamine, etc.) are also of interest due to their ability to dissolve more oxygen and their robust inertness.

[7] = deuterated polar aprotic solvents, such as DMSO
[8] = water (D2O with 7.5% DMSO-D6), 980 nm

Structure (SMILES): C(/C=C1\CCCC(/C=C/c2cc(-c3ccccc3)[s+]c(-c3ccccc3)c2)=C1[n+]1ccccc1)=C1C=C(c2ccccc2)SC(c2ccccc2)=C1 [IR-1061-pyridinium]
stability in the presence of water [1]: unatable
DPBF signal relative to a dark control [2]: significant decrease

Structure (SMILES): ClC1=C(/C=C/c2cc(-c3ccccc3)[s+]c(-c3ccccc3)c2)CCC/C1=C\C=C1C=C(c2ccccc2)SC(c2ccccc2)=C1 [IR-1061]
DPBF signal relative to a dark control [2]: no significant changes

Structure (SMILES): CC1(C)C(=CC=C2CCCC(C=CC3=[N+](CCCCS(=O)(=O)[O-])c4ccc5ccccc5c4C3(C)C)=C2Cl)N(CCCCS(=O)(=O)[O-])c2ccc3ccccc3c21.[Na+] [IR-820]
DPBF decay / singlet oxygen generation in D2O compared to H2O ([3]; 810 nm LED): increase; also recorded: faster decay rate
DPBF signal decay when irradiated ([3]; D2O, 810 nm LED): marked increase in the signal decay
DPBF signal decay when irradiated ([3]; H2O, 810 nm LED): marked increase in the signal decay
singlet oxygen generation (DPBF analysis) ([3]; in H2O or D2O): singlet oxygen generation was observed

Structure (SMILES): Cc1cc2nc3c(=O)[nH]c(=O)nc-3n(C[C@H](O)[C@H](O)[C@H](O)CO)c2cc1C [riboflavin]
change in Young's Modulus of pig sclera (porcine sclera): minimal change
SOSG fluorescence emission at 525 nm [4]: increase

DPBF degradation [5, 7]: decreased
photobleaching of the dye [5, 7]: photobleaching
DPBF degradation rates [5, 8]: comparable to those seen in chloroform
photobleaching of the dye [5, 8]: high levels
Structure (SMILES): C(/C=C1\CCCC(/C=C/c2cc(-c3ccccc3)[s+]c(-c3ccccc3)c2)=C1[n+]1c2ccccc2cc2ccccc21)=C1C=C(c2ccccc2)SC(c2ccccc2)=C1 [IR-1061-acridinium]
singlet oxygen generation ([5]; deuterated nonpolar solvents, such as toluene): no singlet oxygen generation was observed
stability to strong acids and bases ([1]; prior to irradiation): dye instability and bleaching prior to irradiation
dye and DPBF signal during irradiation ([2]; 1064 nm in CDCl3): Rapid bleaching of both the dye and DPBF signal
DPBF signal ([2]; freeze-pump-thawed CDCl3 (devoid of oxygen), 980 nm): no change

solubility [6]: increase
Structure (SMILES): C(/C=C1\CCCC(/C=C/c2cc(-c3ccccc3)[s+]c(-c3ccccc3)c2)=C1[n+]1c2ccccc2cc2ccccc21)=C1C=C(c2ccccc2)SC(c2ccccc2)=C1 [IR-1061-Acridinium BArF]
photosensitization capability ([2]; counterion exchanged from BF4- to BarF-): marked decrease
